From PMC9848282, “Antinociceptive activity of doliroside B” (Pharmaceutical Biology, 2023)
“And” between values parts separate entries of the source, which are not always exact repeats. Identical values can stand only once.

Tests used:
[1] = tested on: acetic acid-induced writhing in Kunming mice; experiment: Acetic acid-induced writhing test; type: in vivo; details: for ED50: Mus musculus, read-out: ED50 (median effective dose); for effect of NAL on the reduction of writhing number: absence vs presence of NAL 5 mg/kg i.p., MOP 1, IND 10, ASA 100, DB 5, DBDS 5 mg/kg, Figure 4; for fold weaker than DBDS (ED50): writhing test, ED50 compared with DBDS
[2] = tested on: hot plate-induced nociception in mice; experiment: Eddy's hot plate test; type: in vivo
Method: Female Kunming mice (20 ± 2 g) from Chengdu Dossy Experiment Animal Co., Ltd. (Sichuan, China) were used for antinociceptive experiments. These animals were kept under a constant temperature (23 ± 1 °C), humidity (40–70%), airflow speed ([…]) and noise (≤ 60 db), and maintained under a 12 h light-dark cycle. After the experiment is completed, mice were euthanized humanely. All the animal experiments were approved by the Institutional Animal Care and Use Committee of Yunnan Minzu University (permit no. 20200608).
This was performed according to a previously reported procedure (Eddy and Leimbach [1953]). The pain threshold was defined as the duration from the beginning of placing mice on the plate to the mice jumping, licking, or shaking its paws. Because the scrotum of male mice is saggy, which can be stimulated by hot plate, healthy female mice with pain threshold less than 20 s were used for hot plate test. […] After administration of the test compounds, the pain threshold was recorded at 0, 30, 60, 90, and 120 min. Among the tests in the absence and presence of NAL (5 mg/kg), i.p. injection of NAL was performed 10 min before administration of testing compounds. […]

[3] = tested on: formalin-induced nociception in mice; experiment: Formalin test; type: in vivo
NO production = experiment: cells; type: cell-based; details: Mus musculus, RAW264.7; 25 µmol/L (positive control); LPS-stimulated, 24 h
Nav1.2 = Nav1.2 (Homo sapiens, UniProt Q99250); type: cell-based
TRPV1 channel = TRPV1 channel (Homo sapiens, UniProt Q8NER1); experiment: cell-based; type: cell-based
[4] = hot plate test, absence vs presence of NAL 5 mg/kg i.p.
[5] = formalin test, absence vs presence of NAL 5 mg/kg i.p., MOP 1, IND 10, ASA 100, DB 20, DBDS 20 mg/kg, Figure 5

TRPV1 channel, sequence (Q8NER1 whole entry): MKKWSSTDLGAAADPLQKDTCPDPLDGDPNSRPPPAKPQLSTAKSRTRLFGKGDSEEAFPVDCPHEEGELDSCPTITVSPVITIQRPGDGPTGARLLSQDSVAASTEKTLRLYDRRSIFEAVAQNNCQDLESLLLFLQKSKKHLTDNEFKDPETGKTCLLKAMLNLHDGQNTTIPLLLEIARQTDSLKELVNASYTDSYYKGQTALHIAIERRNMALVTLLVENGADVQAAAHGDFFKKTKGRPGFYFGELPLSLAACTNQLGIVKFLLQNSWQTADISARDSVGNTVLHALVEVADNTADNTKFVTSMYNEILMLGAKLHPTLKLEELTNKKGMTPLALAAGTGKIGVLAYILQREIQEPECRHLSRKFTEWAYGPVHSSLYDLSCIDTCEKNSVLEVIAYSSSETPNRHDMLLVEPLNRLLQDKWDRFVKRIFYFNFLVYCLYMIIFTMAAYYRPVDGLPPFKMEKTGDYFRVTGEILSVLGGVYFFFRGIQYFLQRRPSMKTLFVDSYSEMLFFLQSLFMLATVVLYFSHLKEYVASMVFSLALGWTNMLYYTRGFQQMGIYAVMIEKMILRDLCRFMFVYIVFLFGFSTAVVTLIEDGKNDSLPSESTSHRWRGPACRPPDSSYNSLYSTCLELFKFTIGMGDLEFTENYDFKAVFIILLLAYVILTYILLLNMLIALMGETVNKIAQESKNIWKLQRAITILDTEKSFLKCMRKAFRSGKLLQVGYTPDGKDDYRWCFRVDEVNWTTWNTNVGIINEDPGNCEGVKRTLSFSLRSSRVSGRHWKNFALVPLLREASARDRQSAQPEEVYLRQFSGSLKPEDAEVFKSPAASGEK
Nav1.2, sequence (Q99250 whole entry): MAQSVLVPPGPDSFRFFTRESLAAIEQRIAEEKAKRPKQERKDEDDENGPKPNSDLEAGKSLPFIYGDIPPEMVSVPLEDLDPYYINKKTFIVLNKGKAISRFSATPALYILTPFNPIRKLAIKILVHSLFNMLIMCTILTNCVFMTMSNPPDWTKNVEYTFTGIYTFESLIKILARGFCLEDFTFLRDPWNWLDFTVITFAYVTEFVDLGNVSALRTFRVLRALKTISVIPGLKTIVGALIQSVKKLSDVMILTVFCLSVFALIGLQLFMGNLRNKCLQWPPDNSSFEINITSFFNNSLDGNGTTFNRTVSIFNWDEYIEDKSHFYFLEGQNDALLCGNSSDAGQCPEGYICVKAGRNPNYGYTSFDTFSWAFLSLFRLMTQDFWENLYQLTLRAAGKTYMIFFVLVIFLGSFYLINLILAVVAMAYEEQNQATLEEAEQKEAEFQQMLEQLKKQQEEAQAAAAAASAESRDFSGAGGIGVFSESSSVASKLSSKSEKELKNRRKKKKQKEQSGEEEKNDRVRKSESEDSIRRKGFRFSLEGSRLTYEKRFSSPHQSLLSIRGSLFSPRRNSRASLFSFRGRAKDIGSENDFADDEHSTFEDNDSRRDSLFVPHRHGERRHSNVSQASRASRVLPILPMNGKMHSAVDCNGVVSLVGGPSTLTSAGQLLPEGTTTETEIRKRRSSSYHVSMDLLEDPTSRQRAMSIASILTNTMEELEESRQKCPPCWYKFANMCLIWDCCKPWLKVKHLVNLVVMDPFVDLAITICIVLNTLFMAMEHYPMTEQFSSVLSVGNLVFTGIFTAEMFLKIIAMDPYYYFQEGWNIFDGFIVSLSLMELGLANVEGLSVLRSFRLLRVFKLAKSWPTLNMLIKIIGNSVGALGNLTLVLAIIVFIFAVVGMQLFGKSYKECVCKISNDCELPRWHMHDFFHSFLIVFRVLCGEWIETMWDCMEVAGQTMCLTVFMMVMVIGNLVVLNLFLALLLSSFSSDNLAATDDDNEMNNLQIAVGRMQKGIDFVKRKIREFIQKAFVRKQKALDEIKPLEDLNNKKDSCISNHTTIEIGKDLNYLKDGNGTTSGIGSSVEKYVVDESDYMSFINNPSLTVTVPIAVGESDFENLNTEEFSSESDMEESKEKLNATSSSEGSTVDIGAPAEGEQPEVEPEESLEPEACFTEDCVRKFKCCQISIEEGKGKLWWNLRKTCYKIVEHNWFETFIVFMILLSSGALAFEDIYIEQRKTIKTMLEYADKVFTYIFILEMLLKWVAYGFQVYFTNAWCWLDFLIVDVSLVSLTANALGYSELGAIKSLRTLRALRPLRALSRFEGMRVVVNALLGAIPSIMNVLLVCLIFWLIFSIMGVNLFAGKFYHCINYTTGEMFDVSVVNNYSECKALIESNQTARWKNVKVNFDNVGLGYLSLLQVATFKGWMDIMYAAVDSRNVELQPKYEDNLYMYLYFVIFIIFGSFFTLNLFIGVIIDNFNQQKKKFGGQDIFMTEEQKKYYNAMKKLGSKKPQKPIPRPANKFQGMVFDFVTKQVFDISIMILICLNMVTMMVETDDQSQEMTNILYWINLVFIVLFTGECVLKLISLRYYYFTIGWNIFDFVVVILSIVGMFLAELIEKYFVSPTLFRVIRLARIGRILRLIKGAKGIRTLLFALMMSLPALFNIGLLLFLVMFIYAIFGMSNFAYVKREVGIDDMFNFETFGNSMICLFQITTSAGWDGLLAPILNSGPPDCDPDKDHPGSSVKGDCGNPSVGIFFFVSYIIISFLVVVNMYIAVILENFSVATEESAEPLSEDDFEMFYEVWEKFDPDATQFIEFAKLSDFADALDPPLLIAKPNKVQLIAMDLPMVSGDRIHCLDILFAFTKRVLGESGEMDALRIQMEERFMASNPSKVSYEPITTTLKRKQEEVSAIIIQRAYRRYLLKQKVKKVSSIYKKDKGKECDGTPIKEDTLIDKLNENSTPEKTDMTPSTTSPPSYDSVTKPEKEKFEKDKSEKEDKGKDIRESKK

Q: With `CC(=O)Oc1ccccc1C(=O)O` [ASA, Acetylsalicylic acid] as the compound, how does the “inhibition of writhing number” value ([1]; 100 mg/kg oral, Figure 1(A) experiment) read?
A: 61.2%

Q: What about the “inhibition of writhing number” value ([1]; 200 mg/kg, dose-response Figure 1(E)) of the same compound?
A: 73.3%

Q: What about the ED50 ([1]; writhing test in mice) of the same compound?
A: 70.1 mg/kg

Q: And the “effect of NAL on the reduction of writhing number” value [1]?
A: Only a minor difference

Q: And the Pain threshold ([2]; 100 mg/kg, absence of NAL, 30 min, Table 2)?
A: 20.3 ± 5.9 s

Q: What about the Pain threshold ([2]; 100 mg/kg, absence of NAL, 60 min, Table 2) of the same compound?
A: 19.8 ± 3.2 s

Q: What about the Pain threshold ([2]; 100 mg/kg, absence of NAL, 90 min, Table 2) of the same compound?
A: 14.1 ± 4.3 s

Q: What about the Pain threshold ([2]; 100 mg/kg, 30 min, Table 1) of the same compound?
A: 18.6 ± 5.2 s

Q: What about the Pain threshold ([2]; 100 mg/kg, 60 min, Table 1) of the same compound?
A: 17.8 ± 3.3 s

Q: And the Pain threshold ([2]; 100 mg/kg, 90 min, Table 1)?
A: 12.9 ± 4.0 s

Q: And the Pain threshold ([2]; 100 mg/kg, 120 min, Table 1)?
A: 10.6 ± 2.8 s

Q: What about the “effect of NAL on the antinociceptive effect” value [2, 4] of the same compound?
A: not effectively removed by NAL

Q: And the “effect of NAL on the antinociceptive effect” value [3, 5]?
A: not effectively removed by NAL

Q: What about the “inhibition of licking time” value ([3]; late phase (15-30 min), 100 mg/kg i.g.) of the same compound?
A: 64.8%

Q: What does the source list for `COc1ccc2c(c1)c(CC(=O)O)c(C)n2C(=O)c1ccc(Cl)cc1` [IND, indomethacin]?
A: inhibition of writhing number ([1]; 10 mg/kg oral, Figure 1(A) experiment): 58.7%; inhibition of writhing number ([1]; 20 mg/kg, dose-response Figure 1(D)): 76.1%; ED50 ([1]; writhing test in mice): 5.91 mg/kg; effect of NAL on the reduction of writhing number [1]: Only a minor difference; fold weaker than DBDS (ED50) [1]: approximately 5 fold; Pain threshold ([2]; 10 mg/kg, absence of NAL, 0 min, Table 2): 12.1 ± 2.9 s; Pain threshold ([2]; 10 mg/kg, absence of NAL, 30 min, Table 2): 11.7 ± 3.0 s; Pain threshold ([2]; 10 mg/kg, absence of NAL, 60 min, Table 2): 11.6 ± 2.2 s; Pain threshold ([2]; 10 mg/kg, absence of NAL, 90 min, Table 2): 10.7 ± 2.1 s; Pain threshold ([2]; 10 mg/kg, absence of NAL, 120 min, Table 2): 12.0 ± 3.2 s; Pain threshold ([2]; 10 mg/kg, 0 min, Table 1): 11.3 ± 2.8 s; Pain threshold ([2]; 10 mg/kg, 30 min, Table 1): 11.7 ± 3.4 s; Pain threshold ([2]; 10 mg/kg, 60 min, Table 1): 12.5 ± 3.0 s; Pain threshold ([2]; 10 mg/kg, 90 min, Table 1): 12.1 ± 2.9 s; Pain threshold ([2]; 10 mg/kg, 120 min, Table 1): 10.9 ± 2.9 s; effect of NAL on the antinociceptive effect [2, 4]: not effectively removed by NAL; effect of NAL on the antinociceptive effect [3, 5]: not effectively removed by NAL; inhibition of licking time ([3]; late phase (15-30 min), 10 mg/kg i.g.): 57.3%

Q: `[H]/N=C(/NC)NCCC[C@H](N)C(=O)O` [L-NMMA, NG-Monomethyl-L-arginine acetate] was tested. Which inhibition at 25 µM (NO production) did it give?
A: 73%

Q: For `CN1CC[C@]23c4c5ccc(O)c4O[C@H]2[C@@H](O)C=C[C@H]3[C@H]1C5` [MOP, morphine], which “effect of NAL on the antinociceptive effect” value ([2]; mouse, in vivo) is on record?
A: removed by NAL

Q: What about the “effect of NAL on the antinociceptive effect” value ([3]; mouse, in vivo) of the same compound?
A: removed by NAL

Q: And the “inhibition of licking time” value ([3]; mouse, in vivo, ip, 1 mg/kg)?
A: 55.3% and 75.9%

Q: With `NC1=N[C@H](O)[C@H]2[C@H]3O[C@]4(O)O[C@@H]([C@@H](O)[C@@]2(N1)[C@@H]4O)[C@]3(O)CO` [TTX, Tetrodotoxin] as the compound, how does the IC50 (Nav1.2) read?
A: 0.016 ± 0.015 µM

Q: For `COc1cc(CNC(=O)CCCC/C=C/C(C)C)ccc1O` [capsaicin], which “direct effect on TRPV1 activity (compound alone)” value (TRPV1 channel; compound alone) is on record?
A: induced a significant activation

Q: `Oc1cc2c(cc1O)CN(C(=S)NCCc1ccc(Cl)cc1)CCC2` [capsazepine] was tested. Which IC50 (TRPV1 channel; TRPV1 inhibitor control) did it give?
A: 7.3 ± 0.06 µM

Q: For doliroside B [DB], which “inhibition of writhing number” value ([1]; 5 mg/kg oral, dose-response Figure 1(B-D)) is on record?
A: 58.7%

Q: And the “effect of NAL on the reduction of writhing number” value [1]?
A: Only a minor difference

Q: What about the “ED50 (median effective dose)” value ([1]; writhing test in mice) of the same compound?
A: 4.68 mg/kg

Q: What about the “fold weaker than DBDS (ED50)” value [1] of the same compound?
A: ~4 fold

Q: What about the Pain threshold ([2]; 2.5 mg/kg, 0 min, Table 1) of the same compound?
A: 12.0 ± 4.4 s

Q: What about the Pain threshold ([2]; 2.5 mg/kg, 30 min, Table 1) of the same compound?
A: 12.1 ± 3.7 s

Q: And the Pain threshold ([2]; 2.5 mg/kg, 60 min, Table 1)?
A: 12.7 ± 4.4 s

Q: And the Pain threshold ([2]; 2.5 mg/kg, 90 min, Table 1)?
A: 14.2 ± 4.7 s

Q: And the Pain threshold ([2]; 2.5 mg/kg, 120 min, Table 1)?
A: 12.4 ± 3.4 s

Q: And the Pain threshold ([2]; 5 mg/kg, 0 min, Table 1)?
A: 11.4 ± 2.9 s

Q: What about the Pain threshold ([2]; 5 mg/kg, 30 min, Table 1) of the same compound?
A: 12.0 ± 3.4 s

Q: And the Pain threshold ([2]; 5 mg/kg, 60 min, Table 1)?
A: 10.2 ± 2.9 s

Q: What about the Pain threshold ([2]; 5 mg/kg, 90 min, Table 1) of the same compound?
A: 12.6 ± 3.6 s

Q: What about the Pain threshold ([2]; 5 mg/kg, 120 min, Table 1) of the same compound?
A: 10.9 ± 3.7 s

Q: What about the Pain threshold ([2]; 10 mg/kg, 0 min, Table 1) of the same compound?
A: 10.4 ± 3.0 s

Q: What about the Pain threshold ([2]; 10 mg/kg, 30 min, Table 1) of the same compound?
A: 14.6 ± 4.9 s

Q: And the Pain threshold ([2]; 10 mg/kg, 60 min, Table 1)?
A: 16.4 ± 6.2 s

Q: What about the Pain threshold ([2]; 10 mg/kg, 90 min, Table 1) of the same compound?
A: 15.6 ± 4.2 s

Q: And the Pain threshold ([2]; 10 mg/kg, 120 min, Table 1)?
A: 12.6 ± 3.7 s

Q: And the Pain threshold ([2]; 20 mg/kg, absence of NAL, 0 min, Table 2)?
A: 11.8 ± 3.3 s

Q: And the Pain threshold ([2]; 20 mg/kg, absence of NAL, 30 min, Table 2)?
A: 19.6 ± 4.2 s

Q: And the Pain threshold ([2]; 20 mg/kg, absence of NAL, 60 min, Table 2)?
A: 21.7 ± 5.9 s

Q: What about the Pain threshold ([2]; 20 mg/kg, absence of NAL, 90 min, Table 2) of the same compound?
A: 18.0 ± 5.6 s

Q: What about the Pain threshold ([2]; 20 mg/kg, absence of NAL, 120 min, Table 2) of the same compound?
A: 15.2 ± 4.6 s

Q: And the Pain threshold ([2]; 20 mg/kg, 0 min, Table 1)?
A: 11.8 ± 3.3 s

Q: What about the Pain threshold ([2]; 20 mg/kg, 30 min, Table 1) of the same compound?
A: 18.8 ± 3.6 s

Q: What about the Pain threshold ([2]; 20 mg/kg, 60 min, Table 1) of the same compound?
A: 19.7 ± 5.3 s

Q: What about the Pain threshold ([2]; 20 mg/kg, 90 min, Table 1) of the same compound?
A: 18.1 ± 6.3 s

Q: And the Pain threshold ([2]; 20 mg/kg, 120 min, Table 1)?
A: 13.8 ± 4.2 s

Q: What about the “effect of NAL on the antinociceptive effect” value [2, 4] of the same compound?
A: not effectively removed by NAL

Q: And the “effect of NAL on the antinociceptive effect” value [3, 5]?
A: not effectively removed by NAL
